Experimental data published in US20250129080A1, “COMPOSITIONS AND METHODS OF USING THE SAME FOR TREATMENT OF NEURODEGENERATIVE AND MITOCHONDRIAL DISEASE” (Mitokinin, Inc., priority 2021, published 2025).

Experiments:
SKOV3 cells = assay: In vitro mitosafety (glucose/galactose) assay; type: cell-based; settings: highest mito-safe dose (gal/glc >0.80, IC20, SKOV3 cells, 20 hours) divided by mt-Keima EC50
Procedure: Briefly, SKOV3 cells (ATCC HTB-77) were plated in DMEM (Corning 10-013-CV) medium containing 25 mM glucose or DMEM with no glucose (Gibco 11966-025) supplemented with 10 mMV galactose at 9,000 cells/well in 96 well plates (Corning costar 3610). 24 hrs later, compounds, in DMSO, were added at various concentrations to a final 0.1% DMSO for all wells. […] After a 15 minute incubation cellular ATP levels were read out using a Promega GloMax® DiscoverMicroplate Reader.
The ratio of relative CellTiter-Glo values from cells grown in galactose to cells grown in glucose was determined (gal/glc ratio). The gal/glc ratio vs concentration is then graphed, and non-linear regression is used to find the highest concentration of MTK compound at which gal/glc >0.80 (the “highest mito-safe dose”, or IC20).

[1] = tested on: HeLa cells expressing mt-Keima and YFP-Parkin (HeLa MKYP); assay: Human mt-Keima mitophagy assay; type: cell-based; settings: 16 hrs with compound, then FCCP/oligomycin for 6 hours, FACS
Procedure: Briefly, HeLa cells expressing mt-Keima and YFP-Parkin (HeLa MKYP) were plated at 10,000 cells/well in 96 well plates along with compounds at various concentrations. Following 16 hrs of incubation, cells were treated with […] FCCP/oligomycin for 6 hours, then analyzed via FACS for the presence of mitochondria in lysosomes (as determined by an emissions spectrum shift from the pH-sensitive mt-Keima tag).

| EC50 ([1]; Homo sapiens, HeLa) [nM] | SMILES | Mito-Safety Index (highest safe dose/EC50) (SKOV3 cells) | EC50 [1] [nM] |
| --- | --- | --- | --- |
| 448 | CO[C@H]1CCCN([C@H]2COc3ccccc3[C@@H]2Nc2ncnc3[nH]c(C(F)(F)F)cc23)C1 [EP-0043439, N-((3R,4S)-3-((S)-3-Methoxypiperidin-1-Yl)Chroman-4-Yl)-6-(Trifluoromethyl)-7H-Pyrrolo[2,3-D]Pyrimidin-4-Amine] | 48.93 |  |
| 480 | Fc1ccc2c(c1)OC[C@H](N1CC[C@H](F)C1)[C@H]2Nc1ncnc2[nH]c(C(F)(F)F)cc12 [EP-0043839, N-((3R,4S)-7-fluoro-3-((S)-3-fluoropyrrolidin-1-yl)chroman-4-yl)-6-(trifluoromethyl)-7H-pyrrolo[2,3-d]pyrimidin-4-amine] | 41.3 |  |
| 90 | FC(F)(F)O[C@H]1CCN([C@H]2COc3ccccc3[C@@H]2Nc2ncnc3[nH]c(C(F)(F)F)cc23)C1 [EP-0043865, N-((3R,4S)-3-((S)-3-(trifluoromethoxy)pyrrolidin-1-yl)chroman-4-yl)-6-(trifluoromethyl)-7H-pyrrolo[2,3-d]pyrimidin-4-amine] | 44.4 |  |
| 349 | F[C@@H]1CCN([C@H]2COc3ccccc3[C@@H]2Nc2ncnc3[nH]c(C4CC4)cc23)C1 [EP-0042534, 6-Cyclopropyl-N-((3R,4S)-3-((R)-3-Fluoropyrrolidin-1-Yl)Chroman-4-Yl)-7H-Pyrrolo[2,3-D]Pyrimidin-4-Amine] | 71.21 |  |

Continued, compound first:

| SMILES | EC50 ([1]; Homo sapiens, HeLa) [nM] | Mito-Safety Index (highest safe dose/EC50) (SKOV3 cells) | EC50 [1] [nM] |
| --- | --- | --- | --- |
| FC(F)(F)c1cc2c(N[C@H]3c4ccccc4OC[C@@H]3N3CCOC4(CC4)C3)nccc2[nH]1 [EP-0043895, N-((3R,4S)-3-(4-oxa-7-azaspiro[2.5]octan-7-yl)chroman-4-yl)-2-(trifluoromethyl)-1H-pyrrolo[3,2-c]pyridin-4-amine] | 170 | 94.7 |  |
| FC(F)OC1CN([C@H]2COc3ccccc3[C@@H]2Nc2ncnc3[nH]c(C4CC4)cc23)C1 (relative stereo) [EP-0041832, 6-Cyclopropyl-N-[Trans-3-[3-(Difluoromethoxy)Azetidin-1-Yl]Chroman-4-Yl]-7H-Pyrrolo[2,3-D]Pyrimidin-4-Amine] | 346 | 72.23 |  |
| N#C[C@H]1CCN([C@H]2COc3ccccc3[C@@H]2Nc2ncnc3[nH]c(C4CC4)cc23)C1 [EP-0043271, (S)-1-((3R,4S)-4-((6-Cyclopropyl-7H-Pyrrolo[2,3-D]Pyrimidin-4-Yl)Amino)Chroman-3-Yl)Pyrrolidine-3-Carbonitrile] |  | 74.90 | 65 |
| FC(F)(F)c1cc2c(N[C@H]3c4ccccc4OC[C@@H]3N3CCOC4(CC4)C3)ncnc2[nH]1 [EP-0042970, N-((3R,4S)-3-(4-Oxa-7-Azaspiro[2.5]Octan-7-Yl)Chroman-4-Yl)-6-(Trifluoromethyl)-7H-Pyrrolo[2,3-D]Pyrimidin-4-Amine] | 404 | 61.94 |  |
| Fc1ccc2c(c1)OC[C@H](N1CCOC3(CC3)C1)[C@H]2Nc1ncnc2[nH]c(C(F)(F)F)cc12 [EP-0043834, N-((3R,4S)-7-fluoro-3-(4-oxa-7-azaspiro[2.5]octan-7-yl)chroman-4-yl)-6-(trifluoromethyl)-7H-pyrrolo[2,3-d]pyrimidin-4-amine] | 560 | 40.9 |  |
| Fc1ccc2c(c1)OC[C@H](N1CCC3(CC3)C1)[C@H]2Nc1ncnc2[nH]c(C(F)(F)F)cc12 [EP-0043913, N-((3R,4S)-7-fluoro-3-(5-azaspiro[2.4]heptan-5-yl)chroman-4-yl)-6-(trifluoromethyl)-7H-pyrrolo[2,3-d]pyrimidin-4-amine] | 370 | 67.6 |  |
| c1ccc2c(c1)OC[C@H](N1CCC3(CCCO3)C1)[C@H]2Nc1ncnc2[nH]c(C3CC3)cc12 (single isomer, unassigned) [EP-0042934] |  | 55.78 | 35 |
| FC(F)(F)c1cc2c(N[C@H]3c4ccccc4OC[C@@H]3N3CCCC3)nccc2[nH]1 [EP-0043873, N-((3R,4S)-3-(pyrrolidin-1-yl)chroman-4-yl)-2-(trifluoromethyl)-1H-pyrrolo[3,2-c]pyridin-4-amine] | 130 | 71.5 |  |
